No end group written: not given here.
Assay: Body and organ weights of mice after myocardial I-R
Format: in vivo, mouse
Details: for Body Weight / Organ weight (mg), LV / Organ weight (mg), RV / Organ weight (mg), atria / Organ weight (mg), heart / Organ weight (mg), lung / Organ weight: body weight (mg/g), LV / Organ weight: body weight (mg/g), RV / Organ weight: body weight (mg/g), atria / Organ weight: body weight (mg/g), heart / Organ weight: body weight (mg/g), lung / Effect on total heart weight and LV weight normalized to body weight / Heart weight normalized to body weight versus sham: mice; for Body Weight (BW, g) / Organ weight: BW (mg/g), LV / Organ weight: BW (mg/g), RV / Organ weight: BW (mg/g), atria / Organ weight: BW (mg/g), heart / Organ weight: BW (mg/g), lung / BW: Table 7; for Effect on total heart weight and LV weight normalized to body weight: 7 days reperfusion; for Heart weight normalized to body weight versus sham: 48 h reperfusion
Experimental: Sample collection: After the study period (24 h, 48 h or 7 d), infarcted or sham-operated mice were euthanised, blood was collected by cardiac puncture using a 25G needle and 1 mL syringe coated with heparin (500 U/mL). Plasma was collected from mice after 24 h reperfusion to assess levels of cardiac troponin I (cTnI) levels; whole blood was collected from mice after 48 h reperfusion to assess total and differential white blood cell (WBC) numbers in the circulation. Lungs, atria, left and right ventricles were dissected, blotted dry, and weighed. Left ventricles (LV) were cut in half at the occlusion site, with the upper part fixed in Neutral Buffer Formalin (NBF, Thermo Fisher Scientific, Melbourne, Australia) and the apex placed in Tissue-Tek® optimal cutting temperature (OCT) compound (Tissue-Tek, Torrance, USA) for storage at −80° C.
Body and organ weights were measured to examine effects of drug treatments on systemic and cardiac characteristics in mice subjected to myocardial ischaemia-reperfusion injury or sham operation. Although there was no difference between the two vehicles (10% DMSO) in saline i.v. vs. 10% DMSO containing 0.8% Tween 20 in saline, i.p.), data from these two groups were combined for group analysis.
Assessment of cardiac inflammation in vivo: Lungs, atria, left and right ventricles from mice in Cohort 3 (following 60 min ischemia and 48 h reperfusion, optimal timing for detecting cardiac leukocyte infiltration) were dissected, blotted dry, and weighed. LV were cut in half at the occlusion site, and the apical half placed in Tissue-Tek® optimal cutting temperature compound (Tissue-Tek, Torrance, USA) for storage at −80° C. LV tissues were then sectioned at 6 μm for immunofluorescent detection of cardiac macrophage and neutrophil content. Sections were pre-incubated with 4% paraformaldehyde for 20 min and 10% normal goat serum for a further 30 min. Sections were then incubated at RT with either CD68+ primary antibody or Ly-6B.2 primary antibody (1:200, ABD Serotec, Raleigh, USA) for 1 h, followed by 30 min incubation with the Alexa Fluor 546 secondary antibody (1:200, Invitrogen, Carlsbad, USA). Finally, sections were incubated with 0.001% Hoechst 33342 (Invitrogen, Melbourne, Australia) for 30 min, to elicit nuclear staining. Single images were photographed using a Nikon A1R confocal microscope (Nikon Instruments Inc., NY, USA) under 20× magnification, and 9×9 single images were then automatically stitched together using NIS-Elements AR software (version 4.10 for Windows, Nikon Instruments Inc., NY, USA) to form each complete composite LV image. The images for infarct area were captured under 40× magnification, and the stitched images were then analyzed using Fiji software (version 1.48c for Max OS X, National Institutes of Health, USA). The threshold was set for each image, to enable optimal sensing and quantification of red fluorescence intensity above threshold, and the software then automatically quantified these red fluorescent signals.

Compound | Body Weight (Table 5, 48 h myocardial I-R) [g] | Organ weight (mg), LV (Table 5, 48 h myocardial I-R) [mg] | Organ weight (mg), RV (Table 5, 48 h myocardial I-R) [mg] | Organ weight (mg), atria (Table 5, 48 h myocardial I-R) [mg] | Organ weight (mg), heart (Table 5, 48 h myocardial I-R) [mg] | Organ weight (mg), lung (Table 5, 48 h myocardial I-R) [mg] | Organ weight: body weight (mg/g), LV (Table 5, 48 h myocardial I-R) [mg/g] | Organ weight: body weight (mg/g), RV (Table 5, 48 h myocardial I-R) [mg/g] | Organ weight: body weight (mg/g), atria (Table 5, 48 h myocardial I-R) [mg/g] | Organ weight: body weight (mg/g), heart (Table 5, 48 h myocardial I-R) [mg/g] | Organ weight: body weight (mg/g), lung (Table 5, 48 h myocardial I-R) [mg/g] | Body Weight (Table 6, 7 d myocardial I-R) [g] | Organ weight (mg), LV (Table 6, 7 d myocardial I-R) [mg] | Organ weight (mg), RV (Table 6, 7 d myocardial I-R) [mg] | Organ weight (mg), atria (Table 6, 7 d myocardial I-R) [mg] | Organ weight (mg), heart (Table 6, 7 d myocardial I-R) [mg] | Organ weight (mg), lung (Table 6, 7 d myocardial I-R) [mg] | Organ weight: body weight (mg/g), LV (Table 6, 7 d myocardial I-R) [mg/g] | Organ weight: body weight (mg/g), RV (Table 6, 7 d myocardial I-R) [mg/g] | Organ weight: body weight (mg/g), atria (Table 6, 7 d myocardial I-R) [mg/g] | other results
CC(C)C1C(NC(=O)Nc2ccc(Cl)cc2)C(=O)N(c2ccccc2)N1C (stereo not drawn) [BIDI-002] | 27 ± 0.6 | 94.9 ± 7.5 | 22.9 ± 1.7 | 9.9 ± 2.8 | 132 ± 11 | 154 ± 6 | 3.5 ± 0.2 | 0.8 ± 0.0 | 0.5 ± 0.1 | 4.8 ± 0.3 | 5.7 ± 0.1 | 23.8 ± 0.9 | 89.0 ± 4.2 | 21.4 ± 1.6 | 7.8 ± 0.5 | 118 ± 6 | 138 ± 7 | 3.7 ± 0.1 | 0.9 ± 0.1 | 0.3 ± 0.0 | Organ weight: body weight (mg/g), heart (Table 6, 7 d myocardial I-R): 5.0 ± 0.2 mg/g; Organ weight: body weight (mg/g), lung (Table 6, 7 d myocardial I-R): 5.8 ± 0.3 mg/g; Body Weight (BW, g) (48 h myocardial I-R): 27 ± 1 g; Organ weight: BW (mg/g), LV (48 h myocardial I-R): 3.5 ± 0.2 mg/g; Organ weight: BW (mg/g), RV (48 h myocardial I-R): 0.8 ± 0.0 mg/g; Organ weight: BW (mg/g), atria (48 h myocardial I-R): 0.5 ± 0.1 mg/g; Organ weight: BW (mg/g), heart (48 h myocardial I-R): 4.8 ± 0.3 mg/g; Organ weight: BW (mg/g), lung (48 h myocardial I-R): 5.7 ± 0.1 mg/g; BW (7 days myocardial I-R): 24 ± 1 g; Organ weight: BW (mg/g), LV (7 days myocardial I-R): 3.7 ± 0.1 mg/g; Organ weight: BW (mg/g), RV (7 days myocardial I-R): 0.9 ± 0.1 mg/g; Organ weight: BW (mg/g), atria (7 days myocardial I-R): 0.3 ± 0.0 mg/g; Organ weight: BW (mg/g), heart (7 days myocardial I-R): 5.0 ± 0.2 mg/g; Organ weight: BW (mg/g), lung (7 days myocardial I-R): 5.8 ± 0.3 mg/g; Effect on total heart weight and LV weight normalized to body weight: not; Effect on total heart weight and LV weight normalized to body weight (listed as Cmpd43): not shared
COc1cccc(Cc2cc(C)nn(C(C)C(=O)Nc3ccc(Br)cc3)c2=O)c1 (stereo not drawn) [BIDI-001, N-(4-bromophenyl)-2-[5-(3-methoxybenzyl)-3-methyl-6-oxo-6H-pyridazin-1-yl]-propionamide] | 28.2 ± 1.0 | 105.0 ± 8.3 | 24.9 ± 3.1 | 14.6 ± 1.2 | 147 ± 11 | 157 ± 6 | 3.7 ± 0.2 | 1.0 ± 0.0 | 0.5 ± 0.0 | 5.2 ± 0.3 | 5.6 ± 0.2 | 24.3 ± 0.5 | 70.1 ± 2.9 | 19.0 ± 1.0 | 7.3 ± 0.8 | 96 ± 4 | 132 ± 3 | 2.9 ± 0.1 | 0.8 ± 0.3 | 0.3 ± 0.0 | Organ weight: body weight (mg/g), heart (Table 6, 7 d myocardial I-R): 4.0 ± 0.1 mg/g; Organ weight: body weight (mg/g), lung (Table 6, 7 d myocardial I-R): 4.7 ± 0.7 mg/g; Body Weight (BW, g) (48 h myocardial I-R): 28 ± 1 g; Organ weight: BW (mg/g), LV (48 h myocardial I-R): 3.7 ± 0.2 mg/g; Organ weight: BW (mg/g), RV (48 h myocardial I-R): 1.0 ± 0.0 mg/g; Organ weight: BW (mg/g), atria (48 h myocardial I-R): 0.5 ± 0.0 mg/g; Organ weight: BW (mg/g), heart (48 h myocardial I-R): 5.2 ± 0.3 mg/g; Organ weight: BW (mg/g), lung (48 h myocardial I-R): 5.6 ± 0.2 mg/g; BW (7 days myocardial I-R): 24 ± 1 g; Organ weight: BW (mg/g), LV (7 days myocardial I-R): 2.9 ± 0.1 mg/g; Organ weight: BW (mg/g), RV (7 days myocardial I-R): 0.8 ± 0.3 mg/g; Organ weight: BW (mg/g), atria (7 days myocardial I-R): 0.3 ± 0.0 mg/g; Organ weight: BW (mg/g), heart (7 days myocardial I-R): 4.0 ± 0.1 mg/g; Organ weight: BW (mg/g), lung (7 days myocardial I-R): 5.4 ± 0.1 mg/g; Heart weight normalized to body weight versus sham: significantly increased; Effect on total heart weight and LV weight normalized to body weight: significantly reduced
Ac2-26: Annexin-A1 N-terminal peptide, peptide ANX-A1 mimetic (Ac-AMVSEFLKQAWFIENEEQEYVQTVK; UniProt P04083 2-26, looked up, fragment) | 28.2 ± 1.0 | 109.8 ± 5.5 | 24.3 ± 0.9 | 10.1 ± 0.7 | 144 ± 6 | 145 ± 9 | 3.8 ± 0.2 | 0.8 ± 0.0 | 0.3 ± 0.0 | 5.0 ± 0.2 | 5.0 ± 0.3 | 25.6 ± 1.0 | 102.9 ± 6.5 | 17.8 ± 2.4 | 8.3 ± 1.0 | 129 ± 10 | 147 ± 7 | 4.0 ± 0.2 | 0.7 ± 0.1 | 0.3 ± 0.0 | Organ weight: body weight (mg/g), heart (Table 6, 7 d myocardial I-R): 5.0 ± 0.2 mg/g; Organ weight: body weight (mg/g), lung (Table 6, 7 d myocardial I-R): 5.7 ± 0.2 mg/g; Heart weight normalized to body weight versus sham: significantly increased; Effect on total heart weight and LV weight normalized to body weight: not

Reference: patent US10328075B2, “Method of treatment and compounds for use therein” (Baker Heart and Diabetes Institute, priority 2015, dated 2019)
